A word on the IC50: it is the concentration that inhibits the measured activity by half.

Here are results for 23 compounds from ChEMBL document CHEMBL1124817, “Synthesis and Ca2+ antagonistic activity of 2-[2-[(aminoalkyl)oxy]-5-methoxyphenyl]-3,4-dihydro-4-methyl-3-oxo-2H- 1,4-benzothiazines” (J Med Chem, 1990).

Assay [1] is filed under the species Cavia porcellus. As to the kind of experiment: Inhibitory concentration required to block Ca+2 induced contraction of K+ depolarized guinea pig taenia cecum. It counts as functional, Caecum.
For assay [2], the species on record is Cavia porcellus. The assay can be described thus: Inhibitory concentration required to block Ca+2 induced contraction of K+ depolarized guinea pig aorta. It is filed as functional.
The species entered for assay [3] is Cavia porcellus. The assay can be described thus: Inhibitory concentration required to suppress the rate of contraction of guinea pig right atria. It is filed as functional.
The nature of assay [4]: Selectivity ratio of IC50 for [Ca2+] antagonistic activity in aorta / IC50 for suppressive effect on rate of contraction. It is filed as functional.
Assay [5] is filed under the species Cavia porcellus. As to the kind of experiment: Inhibitory concentration required to suppress the contractile force of guinea pig right atria. It is filed as functional.
The nature of assay [6]: Selectivity ratio of IC50 for [Ca2+] antagonistic activity in aorta / IC50 for suppressive effect on contractile force. It is filed as functional.

Take `COc1ccc(OCCCN(C)CCOc2ccc3c(c2)OCO3)c(C2Sc3ccccc3N(C)C2=O)c1` (stereo in doubt; (-)-15): in assay [1], 0.6 µM corresponded to half-maximal inhibition (IC50).
Take `COc1ccc(OCCCN(CCOc2ccc3c(c2)OCO3)C(C)C)c(C2Sc3ccccc3N(C)C2=O)c1` (stereo unspecified): in assay [1] (Cavia porcellus, Caecum), it took 1.9 µM to reach half-maximal inhibition (IC50).
Consider `COc1cc(OC)cc(OCCN(C)CCCOc2ccc(OC)cc2C2Sc3ccccc3N(C)C2=O)c1` (stereo unspecified), for which half-maximal inhibition in assay [1] (Cavia porcellus, Caecum) (IC50) was put at 0.55 µM.
For `COc1ccc(OCCCN(C)CCOc2ccc3c(c2)OCO3)c(C2Sc3ccccc3N(C)C2=O)c1` (stereo in doubt; 15), the IC50 in assay [2] is 0.66 µM; in assay [3] (read-out: IC50), 0.59 µM; in assay [1], 0.18 µM; in assay [5], 0.31 µM. For the same compound, the Ratio was found to be 1.1 in assay [4] and 2.1 in assay [6].
In the case of `COc1ccc(OCCCCN(C)CCOc2ccc3c(c2)OCO3)c(C2Sc3ccccc3N(C)C2=O)c1` (stereo unspecified), the IC50 stood at 0.33 µM in assay [2]; 0.19 µM in assay [3] (read-out: IC50); 0.17 µM in assay [1] (Cavia porcellus, Caecum); 0.094 µM in assay [5]. Also, the Ratio in assay [4] turned out to be 1.7; in assay [6], 3.5.
Take `COc1ccc(OCCCN(C)CCOc2c(OC)cccc2OC)c(C2Sc3ccccc3N(C)C2=O)c1` (stereo unspecified): the IC50 in assay [1] (Cavia porcellus, Caecum) amounted to 0.51 µM.
On to `COc1ccc(OCCCCN(C)CCOc2cc(OC)c(OC)c(OC)c2)c(C2Sc3ccccc3N(C)C2=O)c1` (stereo unspecified), for which the IC50 in assay [2] came to 1.5 µM; in assay [3] (read-out: IC50), 0.19 µM; in assay [1] (Cavia porcellus, Caecum), 0.16 µM; in assay [5], 0.2 µM. Further, the figures for the Ratio in assay [4] and in assay [6] were 7.9 and 7.5, respectively.
As for `COc1ccc(OCCCN(C)CCOc2cc(OC)c(OC)c(OC)c2)c(C2Sc3ccccc3N(C)C2=O)c1` (stereo unspecified), the IC50 was 4.1 µM in assay [2]; 0.5 µM in assay [3] (read-out: IC50); 0.23 µM in assay [1] (Cavia porcellus, Caecum); 0.37 µM in assay [5]. Moreover, the figures for the Ratio in assay [4] and in assay [6] were 8.2 and 11.1, respectively.
For `COc1ccc(OCCCN(C)CCc2cc(OC)c(OC)c(OC)c2)c(C2Sc3ccccc3N(C)C2=O)c1` (stereo unspecified), the IC50 is 2.4 µM in assay [2]; 0.4 µM in assay [3] (read-out: IC50); 0.27 µM in assay [1] (Cavia porcellus, Caecum); 0.52 µM in assay [5]. The Ratio in assay [4] was determined as 6; in assay [6], 4.6.
As for `COc1ccc([C@@H]2Sc3ccccc3N(CCN(C)C)C(=O)[C@@H]2OC(C)=O)cc1` [DILTIAZEM], the results for the IC50 in assay [2], in assay [3] (read-out: IC50) and in assay [5] were 4.5 µM, 0.6 µM and 0.095 µM, respectively. In addition, the values for the Ratio in assay [4] and in assay [6] were 7.5 and 47.4, respectively.
In the case of `COc1ccc(OCCCCN(C)CCOc2ccc(OC)c(OC)c2)c(C2Sc3ccccc3N(C)C2=O)c1` (stereo unspecified), the IC50 in assay [2] was 2.9 µM; in assay [3] (read-out: IC50), 0.6 µM; in assay [1] (Cavia porcellus, Caecum) it was 0.23 µM; in assay [5], 0.44 µM. The Ratio in assay [4] came out at 4.8; in assay [6], 6.6.
As to `COc1ccc(OCCN(C)CCCCOc2ccc(OC)cc2C2Sc3ccccc3N(C)C2=O)cc1` (stereo unspecified), in assay [1] (Cavia porcellus, Caecum), the IC50 amounted to 0.53 µM.
On the same count and under the same terms, the same measure for `COc1ccc(OCCCNCCOc2ccc3c(c2)OCO3)c(C2Sc3ccccc3N(C)C2=O)c1` (stereo unspecified): 0.49 µM; for `COc1ccc(OCCCN(C)CCOc2ccc3c(c2)OCO3)c(C2(C)Sc3ccccc3N(C)C2=O)c1` (stereo unspecified): 2.1 µM.
`COc1ccc(CCN(C)CCCC(C#N)(c2ccc(OC)c(OC)c2)C(C)C)cc1OC` (stereo unspecified) [VERAPAMIL]: the results for the IC50 in assay [2], in assay [3] and in assay [5] were 0.62 µM, 0.21 µM and 0.035 µM, respectively. Also, the Ratio in assay [4] worked out at 3; in assay [6] it was 17.7.
`COc1ccc(OCCCN(C)CCOc2ccc3c(c2)CCC3)c(C2Sc3ccccc3N(C)C2=O)c1` (stereo unspecified) yielded an IC50 in assay [1] (Cavia porcellus, Caecum) above 10 µM.
Take `COc1ccc(OCCCN(C)CCOc2ccc3c(c2)OCO3)c(C2(OC)Sc3ccccc3N(C)C2=O)c1` (stereo unspecified): in assay [1] (Cavia porcellus, Caecum), half-maximal inhibition (IC50) was put at 0.25 µM.
`COc1ccc(OCCCCN(C)CCc2cc(OC)c(OC)c(OC)c2)c(C2Sc3ccccc3N(C)C2=O)c1` (stereo unspecified): the IC50 in assay [1] (Cavia porcellus, Caecum) turned out to be 0.35 µM.
As for `COc1ccc(OCCCN(C)CCOc2ccc3c(c2)OCO3)c([C@H]2Sc3ccccc3N(C)C2=O)c1` [SEMOTIADIL], the IC50 is 0.23 µM in assay [2]; 0.18 µM in assay [3] (read-out: IC50); 0.089 µM in assay [1] (Cavia porcellus, Caecum); 0.068 µM in assay [5]. Further, the Ratio in assay [4] came out at 1.3; in assay [6] it was 3.4.
On to `COc1ccc(OCCCN(C)CCOc2ccc3c(c2)OCO3)c(C2(C(C)C)Sc3ccccc3N(C)C2=O)c1` (stereo unspecified), for which, in assay [1] (Cavia porcellus, Caecum), the IC50 is above 10 µM.
`COc1ccc(OCCCN(C)CCOc2ccc3c(c2)OCO3)c(C2(SC)Sc3ccccc3N(C)C2=O)c1` (stereo unspecified) had an IC50 in assay [1] (Cavia porcellus, Caecum) of 1.5 µM.
The same measure, in the same setting: as for `COc1ccc(OCCCN(C)CCOc2ccc3c(c2)OCO3)c(C2CN(C)c3ccccc3S2)c1` (stereo unspecified), the figure is above 10 µM; as for `COc1ccc(OCCCN(C)CCOc2ccc3c(c2)OCO3)c(C2Sc3ccccc3N(C)C2=S)c1` (stereo unspecified), above 10 µM.
